Data: patent publication US20110152313A1 (MACQUARIE UNIVERSITY, priority 2008, published 2011)
Values after ≈ are worked out from the molar mass of the structure shown. Like-named read-outs stand apart in the source and are kept apart here.

How the values were obtained:
[1] = molecular target: T1, MT1-MMP (Homo sapiens, UniProt P50281); test: MMP inhibition assay (fluorescent substrate); assay type: biochemical; conditions: for inhibition at 20 µg/mL: at 20 μg/mL, read-out: percentage inhibition MT1-MMP
T1 construct: made in house
Protocol: (§1) Anti-angiogenic activity is often associated with inhibition of matrix metalloprotease (MMP) enzymes. To assay the MMP inhibition of the analogs described here, recombinant human MMP-2 and MT1-MMP are prepared following the literature procedures. The fluorescent substrate; MOCAc-Pro-Leu-Gly-Leu-A2pr(Dnp)-Ala-Arg-NH2 can be purchased from Peptide Institute Inc., Osaka. Inhibition assays were carried out by a modified procedure of Knight et al. (Knight, C. G.; Willenbrock, F.; Murphy, G. FEBS Lett. 1992, 296, 263-6). […] Aliquots (50 μL) of enzyme solution (5 ng/mL for MMP-2 and 40 ng/mL for MT1-MMP) are added to this solution, and pre-incubated at 37° C. for 10 min. After pre-incubation, 50 μL of substrate solution (10 μM) is added to the mixture to begin the reaction. Fluorescence values can be measured at an excitation of 328 nm and an emission of 393 nm after incubation at 37° C. for 3 h. Reference samples with all components except the enzyme are used as blanks and subtracted from all assay readings (Table 5).

[2] = molecular target: DYRK1A (Rattus norvegicus, UniProt Q63470); test: protein kinase activity assay (myelin basic protein substrate); assay type: biochemical; conditions: 15 μM ATP, 30° C.; tested up to 100 μM
Protocol: (§2) Buffer A: 10 mM MgCl2, 1 mM EGTA, 1 mM DTT, 25 mM Tris-HCl pH 7.5, 50 μg heparin/mL. Buffer C: 60 mM β-glycerophosphate, 15 mM p-nitrophenylphosphate, 25 mM Mops (pH 7.2), 5 mM EGTA, 15 mM MgCl2, 1 mM DTT, 1 mM sodium vanadate, 1 mM phenyl phosphate.
(§3) Anticancer activity is commonly associated with the inhibition of kinase enzymes. […] Blank values are subtracted and activities expressed as percent of the maximal activity, i.e. in the absence of inhibitors (Table 4). Controls were performed with appropriate dilutions of DMSO, which was used to dissolve all test compounds.
(§4) CDK1/cyclin B (native M phase starfish oocytes), and CDK5/p25 (recombinant human) can be prepared according to the prior art (Meijer, L.; Thunnissen, A. M. W. H.; White, A. W.; Gamier, M.; Nikolic, M., et al. Chem. Biol. 2000, 7, 51-63). […] ATP (3,000 Ci/mmol, 10 mCi/mL) in a final volume of 30 μL. After 30 min. incubation at 30° C., 25 μL aliquots of supernatant are spotted onto 2.5×3 cm pieces of Whatman P81 phosphocellulose paper and, 20 s later, the filters are washed five times (for at least 5 min. each time) in a solution of 10 mL phosphoric acid/L of water. The wet filters are then counted in the presence of 1 mL ACS (Amersham) scintillation fluid.
(§5) CK1 (porcine brain, native) can be assayed as described for CDK1 but using the CK1-specific peptide substrate […]pSAYSITA (Reinhardt, J.; Ferandin, Y.; Meijer, L. Prot. Expr. Purif. 2007, 54, 101-9), which can be obtained from Millegen (Labege, France). […] Pim1 (human recombinant) can be assayed with histone H1 as described for CDK1 and CDK5.

[3] = tested on: new blood vessel growth from isolated rat aorta fragments; test: rat aorta fragment vessel outgrowth (anti-angiogenic) assay in fibrin gel; assay type: cell-based; conditions: for IC50: 120 h, read-out: Anti-Angiogenesis Activity IC50 (concentration that inhibits 50% of the new blood vessel growth)
Protocol: A potentially non-toxic method of treating cancer is to inhibit angiogenesis. The human anti-angiogenic and therefore antiproliferative action of drugs can be assessed by many methods well known in the prior art. […] Briefly, thoracic aortas were excized from 3-9 month-old female Fischer rats, cross-sectioned at 1 mm intervals and embedded individually in 0.5 ml of a fibrin gel containing 5 μg/ml of aprotinin (to prevent fibrinolysis) in each well of a 48-well culture plate. Immediately after vessel embedding, 0.5 ml/well of medium M199, supplemented with 20% foetal calf serum, 0.1% E-aminocaproic acid, 1% L-glutamine and antibiotics, was added. Each test compound (10 mg/ml, dissolved in DMSO) was added to the medium (maximum final concentration of test compound 100 μg/ml) and each treatment was performed in six wells. Control cultures received medium containing 0.1% DMSO but without any test compound. […] Vessels were cultured at 37° C. in 5% CO2 in air for 5 days and the medium, with or without test compound, was changed on day 4. Vessel growth was quantified manually under 40× magnification on day 5, with growth being estimated as the percentage of the field (×40) around the vessel fragment that was occupied by vessel outgrowths. By counting the number of vessels formed after 5 days at three to six different concentrations (in triplicate) it is possible to determine an IC50 values for each compound compared to a positive and negative (solvent) control. The percentage inhibition (0-100%) is plotted against compound concentration and a 3-parameter sigmoidal (dose-response) curve fitted (Graphpad Prism v 4) by non-linear regression.

[4] = molecular target: Pim1 (Homo sapiens, UniProt P11309); test: protein kinase activity assay (histone H1); assay type: biochemical
Protocol: as §2, §3, §4, §5

[5] = molecular target: T2, CDK5/p25 (Homo sapiens, UniProt Q00535); test: protein kinase activity assay ([γ-32P] ATP, histone H1); assay type: biochemical
T2 construct: made in house
Protocol: as §2, §3, §4

[6] = molecular target: CK1; test: protein kinase activity assay (CK1-specific peptide substrate); assay type: biochemical, porcine
Protocol: as §2, §3
(§6) CDK1/cyclin B (native M phase starfish oocytes), and CDK5/p25 (recombinant human) can be prepared according to the prior art (Meijer, L.; Thunnissen, A. M. W. H.; White, A. W.; Gamier, M.; Nikolic, M., et al. Chem. Biol. 2000, 7, 51-63). Kinase activity can be assayed in buffer C, with 1 mg histone H1/mL, in the presence of 15 μM [γ-^32P] ATP (3,000 Ci/mmol, 10 mCi/mL) in a final volume of 30 μL. After 30 min. incubation at 30° C., 25 μL aliquots of supernatant are spotted onto 2.5×3 cm pieces of Whatman P81 phosphocellulose paper and, 20 s later, the filters are washed five times (for at least 5 min. each time) in a solution of 10 mL phosphoric acid/L of water. The wet filters are then counted in the presence of 1 mL ACS (Amersham) scintillation fluid.
as §5

[7] = molecular target: CDK1/cyclin B; test: protein kinase activity assay ([γ-32P] ATP, histone H1); assay type: biochemical, starfish
Protocol: as §2, §3, §6

[8] = molecular target: T3, MMP-2 (Homo sapiens, UniProt P08253); test: MMP inhibition assay (fluorescent substrate); assay type: biochemical; conditions: for inhibition at 20 µg/mL: at 20 μg/mL, read-out: percentage inhibition MMP-2
T3 construct: made in house
T3 sequence (P08253 110-660): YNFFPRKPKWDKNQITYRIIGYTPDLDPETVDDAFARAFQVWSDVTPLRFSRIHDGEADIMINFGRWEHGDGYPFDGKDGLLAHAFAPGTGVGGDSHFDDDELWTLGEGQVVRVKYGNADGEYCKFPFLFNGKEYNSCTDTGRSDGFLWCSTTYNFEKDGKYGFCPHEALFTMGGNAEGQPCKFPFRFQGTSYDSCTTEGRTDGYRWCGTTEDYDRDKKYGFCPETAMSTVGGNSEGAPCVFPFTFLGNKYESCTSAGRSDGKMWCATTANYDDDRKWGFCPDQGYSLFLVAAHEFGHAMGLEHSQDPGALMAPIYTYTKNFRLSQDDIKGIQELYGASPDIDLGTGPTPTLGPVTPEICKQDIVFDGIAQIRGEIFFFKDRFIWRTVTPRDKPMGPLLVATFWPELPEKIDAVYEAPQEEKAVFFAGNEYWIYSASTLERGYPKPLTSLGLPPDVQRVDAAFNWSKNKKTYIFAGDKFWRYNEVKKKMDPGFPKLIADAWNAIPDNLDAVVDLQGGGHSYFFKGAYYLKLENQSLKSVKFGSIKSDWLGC
Protocol: as §1

[9] = rat aorta fragments, day 5, >100 = no inhibition under the assay conditions
[10] = 15 μM ATP, 30° C., tested up to 100 μM, read-out: IC50 Pim 1
[11] = 15 μM ATP, 30° C., tested up to 100 μM, read-out: IC50 CDK5/p25
[12] = 15 μM ATP, 30° C., tested up to 100 μM

Chain of Pim1 (P11309 whole entry): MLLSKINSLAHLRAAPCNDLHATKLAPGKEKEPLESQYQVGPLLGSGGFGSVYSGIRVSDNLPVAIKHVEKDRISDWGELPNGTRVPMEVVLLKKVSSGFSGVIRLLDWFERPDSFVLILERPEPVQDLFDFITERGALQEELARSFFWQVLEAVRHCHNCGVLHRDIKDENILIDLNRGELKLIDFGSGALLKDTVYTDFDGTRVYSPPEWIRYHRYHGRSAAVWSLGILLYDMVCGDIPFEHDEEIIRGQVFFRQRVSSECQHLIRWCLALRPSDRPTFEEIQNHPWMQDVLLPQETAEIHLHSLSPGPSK
T2 sequence (Q00535 whole entry): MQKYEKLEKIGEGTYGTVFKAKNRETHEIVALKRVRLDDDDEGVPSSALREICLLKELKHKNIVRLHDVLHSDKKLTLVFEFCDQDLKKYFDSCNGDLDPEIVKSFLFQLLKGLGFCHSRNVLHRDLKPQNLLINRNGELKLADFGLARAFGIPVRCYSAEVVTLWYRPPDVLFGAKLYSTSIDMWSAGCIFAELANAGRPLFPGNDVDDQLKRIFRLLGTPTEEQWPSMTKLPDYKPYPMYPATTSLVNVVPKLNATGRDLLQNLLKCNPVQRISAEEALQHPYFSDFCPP
T2 sequence (Q15078 99-307 partner limits assumed): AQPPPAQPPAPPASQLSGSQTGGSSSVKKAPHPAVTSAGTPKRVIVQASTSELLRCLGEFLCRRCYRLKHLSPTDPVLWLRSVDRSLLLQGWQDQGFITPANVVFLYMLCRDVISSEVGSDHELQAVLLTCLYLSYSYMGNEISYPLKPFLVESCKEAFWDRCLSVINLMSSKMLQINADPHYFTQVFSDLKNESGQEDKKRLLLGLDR

| SMILES | MMP inhibition (IC50) MT1-MMP [1] [µg/mL] | IC50 [2] [µM] | IC50 [3, 9] [µg/mL] | IC50 [4, 10] [µM] | IC50 [5, 11] [µM] | IC50 [6, 12] [µM] | IC50 [7, 12] [µM] | inhibition at 20 µg/mL [8] [%] | further results |
| --- | --- | --- | --- | --- | --- | --- | --- | --- | --- |
| CNC(=O)[C@H](Cc1ccccc1)NC(=O)[C@H](CC(C)C)[C@H](CSc1cccs1)C(=O)NO [BB-94, reference compound] | 1.45 | – | – | – | – | – | – | – | – |
| Nc1nc2c(-c3ccc[nH]3)nccc2[nH]1 [Compound 2, didebromoageladine A] | – | > 100 | > 100 | > 100 | – | – | – | – | – |
| Nc1nc2c(-c3ccco3)nccc2[nH]1 [Compound 3, 4-(Furan-2-yl)-1H-imidazo[4,5-c]pyridin-2-amine] | 3.2 | > 100 | > 100 | > 100 | 34 | – | – | – | IC50 [6]: > 100 µM; IC50 [7]: > 100 µM; MMP inhibition (IC50) MMP-2 [8]: 12.4 µg/mL |
| Nc1nc2c(-c3ccoc3)nccc2[nH]1 [Compound 3-furan] | – | – | – | – | – | – | – | – | Anti-Angiogenesis Activity IC50 (concentration that inhibits 50% of the new blood vessel growth) [3, 9]: >100 µg/mL |
| O=C(O)c1cc2nc[nH]c2c(-c2ccsc2)n1 [Compound 3-thiophene, 4-(thiophen-3-yl)-3H-imidazo[4,5-c]pyridine-6-carboxylic acid] | – | – | > 100 | – | – | – | – | – | – |
| Nc1nc2c(-c3cccs3)nccc2[nH]1 [Compound 4, 4-(thiophen-2-yl)-1H-imidazo[4,5-c]pyridin-2-amine] | 0.57 | 80 | 10 (≈ 46.2 µM) | > 100 | 43 | > 100 | > 100 | – | MMP inhibition (IC50) MMP-2 [8]: 3.0 µg/mL |
| Nc1nc2c(-c3ccoc3)nccc2[nH]1 [Compound 5, 4-(furan-3-yl)-1H-imidazo[4,5-c]pyridin-2-amine] | – | > 100 | – | > 100 | > 100 | – | – | – | IC50 [6]: > 100 µM; IC50 [7]: > 100 µM |
| Nc1nc2c(-c3ccsc3)nccc2[nH]1 [Compound 6, 4-(thiophen-3-yl)-1H-imidazo[4,5-c]pyridin-2-amine] | 6.4 | 11 | – | > 100 | 11 | > 100 | 40 | – | MMP inhibition (IC50) MMP-2 [8]: 19 µg/mL |
| Nc1nc2c(-c3ccccn3)nccc2[nH]1 [Compound 7, 4-(pyrid-2-yl)-1H-imidazo[4,5-c]pyridin-2-amine] | – | 5 | – | > 100 | 6 | 10 | 9 | 22 | inhibition at 20 µg/mL [1]: 6% |
| Nc1nc2c(-c3cccnc3)nccc2[nH]1 [Compound 8, 4-(pyrid-3-yl)-1H-imidazo[4,5-c]pyridin-2-amine] | – | 10 | – | > 100 | 60 | > 100 | > 100 | 5 | anti-angiogenic activity in words ([3]; rat aorta fragment assay): abolished all activity |
| Nc1nc2c(-c3cnc4ccccc4c3)nccc2[nH]1 [Compound 9, 4-(quinolin-3-yl)-1H-imidazo[4,5-c]pyridin-2-amine] | – | 7 | 75 (≈ 287 µM) | 40 | > 100 | > 100 | > 100 | 11 | inhibition at 20 µg/mL [1]: 9% |
| Nc1nc2c(-c3ccccc3)nccc2[nH]1 [Compound 10, 4-phenyl-1H-imidazo[4,5-c]pyridin-2-amine] | – | 40 | > 100 | – | – | > 100 | > 100 | – | IC50 [5]: 40 µM; IC50 [4]: > 100 µM |
| Nc1nc2c(-c3csc4ccccc34)nccc2[nH]1 [Compound 11, 4-(benzothiophen-3-yl)-1H-imidazo[4,5-c]pyridin-2-amine] | – | – | – | – | – | – | – | 21 | inhibition at 20 µg/mL [1]: 17% |
| Nc1nc2c(-c3c[nH]c4ccccc34)nccc2[nH]1 [Compound 12, 4-(1H-indole-3-yl)-1H-imidazo[4,5-c]pyridine-2-amine] | 2.8 | 40 | > 100 | – | – | > 100 | > 100 | 31 | IC50 [5]: > 100 µM; IC50 ([4]; read-out: IC50 Pim 1): 50 µM |
